Results from patent US20230295234A1, “ANTIMICROBIAL PEPTIDOMIMETICS” (SPEXIS AG, priority 2020, published 2023).
Read-outs that look alike come from different tables or passages of the source. Bridge positions count the residues as written; N and C are the ends. Square brackets hold non-standard residues; d marks the D form. Peptide text beside a SMILES is read from it. * marks the point of attachment. Val(Nα-amidino) = CC(C)[C@H](NC(=N)N)C(=O)*; Pro(4R-NH2) = N[C@H]1CN[C@H](C(=O)O)C1; Pen = CC(C)(S)[C@H](N)C(=O)O; dDab = NCC[C@@H](N)C(=O)O; Dab = NCC[C@H](N)C(=O)O

How the values were obtained:
[1] = tested on: Escherichia coli MCR-1 Af 45; conditions: Mueller-Hinton broth II, 18-20 hours at 35° C.
How it was run: (§1)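 Activity is measured against peptides serially diluted two-fold in water with 0.002% final Polysorbate 80. The cells are in cation-adjusted MHII broth at roughly 5×10^5 CFU/mL, prepared from a 0.5 McFarland suspension in 0.85% NaCl.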

[2] = tested on: Escherichia coli ATCC 25922
How it was run: as §1

[3] = tested on: Klebsiella pneumoniae SSI3010
How it was run: as §1

[4] = tested on: human red blood cells (hRBC); assay: Hemolysis of human red blood cells; type: cell-based
How it was run: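 PBS-washed human red blood cells (20% v/v) were incubated with peptide at 200 μg/mL for 1 h at 37 °C with shaking. Supernatant OD was read at 540 nm after 8-fold dilution. Hemolysis is expressed as percent of the water control.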

[5] = Mueller-Hinton broth II, 18-20 hours at 35° C.

Compound: CC[C@H](C)[C@H](NC(=O)[C@@H](NC(=O)[C@@H]1CCCN1C(=O)[C@@H](NC(=N)N)C(C)C)[C@@H](C)CC)C(=O)N[C@@H](Cc1ccc(O)cc1)C(=O)N[C@H]1CSSC[C@@H](C(=O)N[C@@H](CCN)C(=O)N[C@@H](CCCNC(=N)N)C(=O)N[C@@H](Cc2ccc(O)cc2)C(=O)O)NC(=O)[C@H](CCCCN)NC(=O)[C@@H](CCN)NC(=O)[C@H]([C@@H](C)O)NC(=O)[C@H](CCN)NC(=O)[C@H](CCCNC(=N)N)NC(=O)[C@H](CC(N)=O)NC1=O [Example 186] (HELM PEPTIDE1{[CC(C)[C@H](NC(=N)N)C(=O)[*:2]].P.I.I.Y.C.N.R.[Dab].T.[NCC[C@@H](N[*:1])C(=O)[*:2]].K.C.[Dab].R.Y}$PEPTIDE1,PEPTIDE1,6:R3-13:R3$$$V2.0)
- Escherichia coli MCR-1 Af 45 MIC [1]: 0.125 µg/mL
- Escherichia coli ATCC 25922 MIC ([2]; ATCC 25922): 0.125 µg/mL
- Klebsiella pneumoniae SSI3010 MIC ([3]; SSI3010): ≤0.25 µg/mL
- Hemolysis at 0.2 g/L ([4]; red cells of human, 1 h): 0%

Compound: CC[C@H](C)[C@H](NC(=O)[C@@H](NC(=O)[C@@H]1CCCN1C(=O)[C@@H](NC(=N)N)C(C)C)[C@@H](C)CC)C(=O)N[C@@H](Cc1ccc(O)cc1)C(=O)N[C@@H]1C(=O)N[C@@H](CC(N)=O)C(=O)N[C@@H](CCCNC(=N)N)C(=O)N[C@@H](CCN)C(=O)N[C@@H]([C@@H](C)O)C(=O)N[C@H](CCN)C(=O)N[C@@H](CCCCN)C(=O)N[C@H](C(=O)N[C@@H](CCN)C(=O)N[C@@H](CCCNC(=N)N)C(=O)N[C@@H](Cc2ccc(O)cc2)C(=O)O)CSSC1(C)C [Example 187] (HELM PEPTIDE1{[CC(C)[C@H](NC(=N)N)C(=O)[*:2]].P.I.I.Y.[Pen].N.R.[Dab].T.[NCC[C@@H](N[*:1])C(=O)[*:2]].K.C.[Dab].R.Y}$PEPTIDE1,PEPTIDE1,6:R3-13:R3$$$V2.0)
- Escherichia coli MCR-1 Af 45 MIC [1]: 0.125 µg/mL
- Escherichia coli ATCC 25922 MIC [2, 5]: 0.125 µg/mL
- Klebsiella pneumoniae SSI3010 MIC [3, 5]: 0.125 µg/mL
- Hemolysis at 0.2 g/L ([4]; 20% hRBC, 1 h at 37° C.): 0%

Compound: CC[C@H](C)[C@H](NC(=O)[C@@H]1C[C@@H](O)CN1C(=O)[C@@H](NC(=N)N)C(C)C)C(=O)N[C@H](C(=O)N[C@@H](Cc1ccc(O)cc1)C(=O)N[C@@H]1C(=O)N[C@@H](CC(N)=O)C(=O)N[C@@H](CCCNC(=N)N)C(=O)N[C@@H](CCN)C(=O)N[C@@H]([C@@H](C)O)C(=O)N[C@H](CCN)C(=O)N[C@@H](CCCCN)C(=O)N[C@H](C(=O)N[C@@H](CCN)C(=O)N[C@@H](CCCNC(=N)N)C(=O)N[C@@H](Cc2ccc(O)cc2)C(=O)O)CSSC1(C)C)[C@@H](C)O [Example 188] (HELM PEPTIDE1{[CC(C)[C@H](NC(=N)N)C(=O)[*:2]].[Hyp].I.T.Y.[Pen].N.R.[Dab].T.[NCC[C@@H](N[*:1])C(=O)[*:2]].K.C.[Dab].R.Y}$PEPTIDE1,PEPTIDE1,6:R3-13:R3$$$V2.0)
- Escherichia coli MCR-1 Af 45 MIC [1]: ≤0.125 µg/mL
- Escherichia coli ATCC 25922 MIC ([2]; ATCC 25922): 0.125 µg/mL
- Klebsiella pneumoniae SSI3010 MIC ([3]; SSI3010): 0.25 µg/mL
- Hemolysis at 0.2 g/L ([4]; red cells of human, 1 h): 0%

Compound: CC[C@H](C)[C@H](NC(=O)[C@@H](NC(=O)[C@@H]1C[C@@H](O)CN1C(=O)[C@@H](NC(=N)N)C(C)C)[C@@H](C)CC)C(=O)N[C@@H](Cc1ccc(O)cc1)C(=O)N[C@@H]1C(=O)N[C@@H](CC(N)=O)C(=O)N[C@@H](CCCNC(=N)N)C(=O)N[C@@H](CCN)C(=O)N[C@@H]([C@@H](C)O)C(=O)N[C@H](CCN)C(=O)N[C@@H](CCCCN)C(=O)N[C@H](C(=O)N[C@@H](CCN)C(=O)N[C@@H](CCCNC(=N)N)C(=O)N[C@@H](Cc2ccc(O)cc2)C(=O)O)CSSC1(C)C [Example 189] (HELM PEPTIDE1{[CC(C)[C@H](NC(=N)N)C(=O)[*:2]].[Hyp].I.I.Y.[Pen].N.R.[Dab].T.[NCC[C@@H](N[*:1])C(=O)[*:2]].K.C.[Dab].R.Y}$PEPTIDE1,PEPTIDE1,6:R3-13:R3$$$V2.0)
- Escherichia coli MCR-1 Af 45 MIC [1]: 0.03125 µg/mL
- Escherichia coli ATCC 25922 MIC [2, 5]: 0.03125 µg/mL
- Klebsiella pneumoniae SSI3010 MIC [3, 5]: 0.0625 µg/mL
- Hemolysis at 0.2 g/L ([4]; 20% hRBC, 1 h at 37° C.): 0%

Compound: CC[C@H](C)[C@H](NC(=O)[C@@H]1C[C@@H](N)CN1C(=O)[C@@H](NC(=N)N)C(C)C)C(=O)N[C@H](C(=O)N[C@@H](Cc1ccc(O)cc1)C(=O)N[C@@H]1C(=O)N[C@@H](CC(N)=O)C(=O)N[C@@H](CCCNC(=N)N)C(=O)N[C@@H](CCN)C(=O)N[C@@H]([C@@H](C)O)C(=O)N[C@H](CCN)C(=O)N[C@@H](CCCCN)C(=O)N[C@H](C(=O)N[C@@H](CCN)C(=O)N[C@@H](CCCNC(=N)N)C(=O)N[C@@H](Cc2ccc(O)cc2)C(=O)O)CSSC1(C)C)[C@@H](C)O [Example 190] ({Val(Nα-amidino)}-[Pro(4R-NH2)]ITY[Pen]NR[Dab]T[dDab]KC[Dab]RY-OH; disulfide 5-12)
- Escherichia coli MCR-1 Af 45 MIC [1]: 0.0625 µg/mL
- Escherichia coli ATCC 25922 MIC ([2]; ATCC 25922): 0.0625 µg/mL
- Klebsiella pneumoniae SSI3010 MIC ([3]; SSI3010): 0.125 µg/mL
- Hemolysis at 0.2 g/L ([4]; red cells of human, 1 h): 0%

Compound: CC[C@H](C)[C@H](NC(=O)[C@@H](NC(=O)[C@@H]1C[C@@H](N)CN1C(=O)[C@@H](NC(=N)N)C(C)C)[C@@H](C)CC)C(=O)N[C@@H](Cc1ccc(O)cc1)C(=O)N[C@@H]1C(=O)N[C@@H](CC(N)=O)C(=O)N[C@@H](CCCNC(=N)N)C(=O)N[C@@H](CCN)C(=O)N[C@@H]([C@@H](C)O)C(=O)N[C@H](CCN)C(=O)N[C@@H](CCCCN)C(=O)N[C@H](C(=O)N[C@@H](CCN)C(=O)N[C@@H](CCCNC(=N)N)C(=O)N[C@@H](Cc2ccc(O)cc2)C(=O)O)CSSC1(C)C [Example 191] ({Val(Nα-amidino)}-[Pro(4R-NH2)]IIY[Pen]NR[Dab]T[dDab]KC[Dab]RY-OH; disulfide 5-12)
- Escherichia coli MCR-1 Af 45 MIC [1]: 0.0625 µg/mL
- Escherichia coli ATCC 25922 MIC ([2]; ATCC 25922): 0.0625 µg/mL
- Klebsiella pneumoniae SSI3010 MIC ([3]; SSI3010): 0.0625 µg/mL
- Hemolysis at 0.2 g/L ([4]; red cells of human, 1 h): 0%

Compound: CC[C@H](C)[C@H](NC(=O)[C@@H]1C[C@@H](O)CN1C(=O)[C@@H](NC(=N)N)C(C)C)C(=O)N[C@@H](Cc1ccc(O)cc1)C(=O)N[C@@H](Cc1ccc(O)cc1)C(=O)N[C@@H]1C(=O)N[C@@H](CC(N)=O)C(=O)N[C@@H](CCCNC(=N)N)C(=O)N[C@@H](CCN)C(=O)N[C@@H]([C@@H](C)O)C(=O)N[C@H](CCN)C(=O)N[C@@H](CCCCN)C(=O)N[C@H](C(=O)N[C@@H](CCC(N)=O)C(=O)N[C@@H](CCCNC(=N)N)C(=O)N[C@@H](Cc2ccc(O)cc2)C(=O)O)CSSC1(C)C [Example 192] (HELM PEPTIDE1{[CC(C)[C@H](NC(=N)N)C(=O)[*:2]].[Hyp].I.Y.Y.[Pen].N.R.[Dab].T.[NCC[C@@H](N[*:1])C(=O)[*:2]].K.C.Q.R.Y}$PEPTIDE1,PEPTIDE1,6:R3-13:R3$$$V2.0)
- Escherichia coli MCR-1 Af 45 MIC [1]: 0.25 µg/mL
- Escherichia coli ATCC 25922 MIC ([2]; ATCC 25922): 0.25 µg/mL
- Klebsiella pneumoniae SSI3010 MIC ([3]; SSI3010): 0.25 µg/mL
- Hemolysis at 0.2 g/L ([4]; red cells of human, 1 h): 0%

Compound: CC[C@H](C)[C@H](NC(=O)[C@@H]1C[C@@H](O)CN1C(=O)[C@@H](NC(=N)N)C(C)C)C(=O)N[C@H](C(=O)N[C@@H](Cc1ccc(O)cc1)C(=O)N[C@@H]1C(=O)N[C@@H](CCC(=O)O)C(=O)N[C@@H](CCCNC(=N)N)C(=O)N[C@@H](CCN)C(=O)N[C@@H]([C@@H](C)O)C(=O)N[C@H](CCN)C(=O)N[C@@H](CCCCN)C(=O)N[C@H](C(=O)N[C@@H](CCN)C(=O)N[C@@H](CCCNC(=N)N)C(=O)N[C@@H](Cc2ccc(O)cc2)C(=O)O)CSSC1(C)C)[C@@H](C)O [Example 193] (HELM PEPTIDE1{[CC(C)[C@H](NC(=N)N)C(=O)[*:2]].[Hyp].I.T.Y.[Pen].E.R.[Dab].T.[NCC[C@@H](N[*:1])C(=O)[*:2]].K.C.[Dab].R.Y}$PEPTIDE1,PEPTIDE1,6:R3-13:R3$$$V2.0)
- Escherichia coli MCR-1 Af 45 MIC [1]: 0.25 µg/mL
- Escherichia coli ATCC 25922 MIC ([2]; ATCC 25922): 0.25 µg/mL
- Klebsiella pneumoniae SSI3010 MIC ([3]; SSI3010): 0.5 µg/mL
- Hemolysis at 0.2 g/L ([4]; red cells of human, 1 h): 0%

Compound: CC[C@H](C)[C@H](NC(=O)[C@@H]1C[C@@H](O)CN1C(=O)[C@@H](NC(=N)N)C(C)C)C(=O)N[C@H](C(=O)N[C@@H](Cc1ccc(O)cc1)C(=O)N[C@@H]1C(=O)N[C@@H](Cc2c[nH]cn2)C(=O)N[C@@H](CCCNC(=N)N)C(=O)N[C@@H](CCN)C(=O)N[C@@H]([C@@H](C)O)C(=O)N[C@H](CCN)C(=O)N[C@@H](CCCCN)C(=O)N[C@H](C(=O)N[C@@H](CCN)C(=O)N[C@@H](CCCNC(=N)N)C(=O)N[C@@H](Cc2ccc(O)cc2)C(=O)O)CSSC1(C)C)[C@@H](C)O [Example 194] (HELM PEPTIDE1{[CC(C)[C@H](NC(=N)N)C(=O)[*:2]].[Hyp].I.T.Y.[Pen].H.R.[Dab].T.[NCC[C@@H](N[*:1])C(=O)[*:2]].K.C.[Dab].R.Y}$PEPTIDE1,PEPTIDE1,6:R3-13:R3$$$V2.0)
- Escherichia coli MCR-1 Af 45 MIC [1]: 0.125 µg/mL
- Escherichia coli ATCC 25922 MIC ([2]; ATCC 25922): 0.25 µg/mL
- Klebsiella pneumoniae SSI3010 MIC ([3]; SSI3010): 0.25 µg/mL
- Hemolysis at 0.2 g/L ([4]; red cells of human, 1 h): 0%

Compound: CC[C@H](C)[C@H](NC(=O)[C@@H]1C[C@@H](O)CN1C(=O)[C@@H](NC(=N)N)C(C)C)C(=O)N[C@H](C(=O)N[C@@H](Cc1ccc(O)cc1)C(=O)N[C@@H]1C(=O)N[C@@H](CC(N)=O)C(=O)N[C@@H](CCCNC(=N)N)C(=O)N[C@@H](CCN)C(=O)N[C@@H]([C@@H](C)O)C(=O)N[C@H](CCN)C(=O)N[C@@H](CCN)C(=O)N[C@H](C(=O)N[C@@H](CCN)C(=O)N[C@@H](CCCNC(=N)N)C(=O)N[C@@H](Cc2ccc(O)cc2)C(=O)O)CSSC1(C)C)[C@@H](C)O [Example 195] (HELM PEPTIDE1{[CC(C)[C@H](NC(=N)N)C(=O)[*:2]].[Hyp].I.T.Y.[Pen].N.R.[Dab].T.[NCC[C@@H](N[*:1])C(=O)[*:2]].[Dab].C.[Dab].R.Y}$PEPTIDE1,PEPTIDE1,6:R3-13:R3$$$V2.0)
- Escherichia coli MCR-1 Af 45 MIC [1]: 0.0625 µg/mL
- Escherichia coli ATCC 25922 MIC ([2]; ATCC 25922): 0.25 µg/mL
- Klebsiella pneumoniae SSI3010 MIC ([3]; SSI3010): 0.125 µg/mL
- Hemolysis at 0.2 g/L ([4]; red cells of human, 1 h): 0%
